Measurements from patent US6743809B2, “Indole Derivatives useful for the treatment of CNS disorders” (H. Lundbeck A/S, priority 2000, dated 2004).

Biological target: T1, human cloned dopamine D4.2 receptors (Homo sapiens, UniProt P21917, DEL265-296)
T1 construct: expressed in transfected cells; host or cells: CHO cells
T1 sequence (P21917 with tags, fused parts or gaps DEL265-296): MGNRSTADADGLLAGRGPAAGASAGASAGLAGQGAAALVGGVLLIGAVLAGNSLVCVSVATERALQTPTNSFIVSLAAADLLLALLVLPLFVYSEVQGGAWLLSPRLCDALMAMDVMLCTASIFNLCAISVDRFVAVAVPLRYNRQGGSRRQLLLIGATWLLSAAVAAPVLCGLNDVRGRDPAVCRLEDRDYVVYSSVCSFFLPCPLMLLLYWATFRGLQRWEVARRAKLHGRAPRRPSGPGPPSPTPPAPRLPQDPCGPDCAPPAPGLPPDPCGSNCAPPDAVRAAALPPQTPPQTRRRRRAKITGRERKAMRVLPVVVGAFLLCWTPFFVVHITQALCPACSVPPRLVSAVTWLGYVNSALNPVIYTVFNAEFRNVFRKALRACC
Assay: Inhibition of the binding of [3H]YM-09151-2 to human dopamine D4 receptors
Settings: 50 nM compound; [3H]YM-09151-2 0.06 nM; membranes of CHO-cells
Experimental: Inhibition of the Binding of [^3H]YM-09151-2 to Human Dopamine D4 Receptors
By this method, the inhibition by drugs of the binding of [^3H]YM-09151-2 (0.06 nM) to membranes of human cloned dopamine D4.2 receptors expressed in CHO-cells is determined in vitro. The method is modified from NEN Life Science Products, Inc., technical data certificate PC2533-10/96.

SMILES | inhibition at 0.05 µM [%]
COc1ccc(C(=O)Nc2ccc(C)c(CCN3CCC(c4c[nH]c5c(Cl)cccc45)CC3)c2)cc1 [Compound 4f, 3-(1-{2-[5-(4-Methoxybenzoylamino)-2-methylphenyl]ethyl}piperidin-4-yl)-7-chloro-1H-indole] | 48
Cc1ccc(NC(=O)c2ccncc2)cc1CCN1CCC(c2c[nH]c3c(Cl)cccc23)CC1 [Compound 4h, 3-[1-(2-{2-Methyl-5-[(pyridin-4-ylmethanoyl)amino]phenyl}ethyl)piperidin-4-yl]-7-chloro-1H-indole] | 73
Cc1ccc(NC(=O)c2cccs2)cc1CCN1CCC(c2c[nH]c3c(Cl)cccc23)CC1 [Compound 4i, 3-[1-(2-{2-Methyl-5-[(thiophen-2-ylmethanoyl)amino]phenyl}ethyl)piperidin-4-yl]-7-chloro-1H-indole] | 85
Cc1ccc(NC(=O)c2ccsc2)cc1CCN1CCC(c2c[nH]c3c(Cl)cccc23)CC1 [Compound 4j, 3-[1-(2-{2-Methyl-5-[(thiophen-3-ylmethanoyl)amino]phenyl}ethyl)piperidin-4-yl]-7-chloro-1H-indole] | 48
Cc1ccc(NC(=O)c2cnns2)cc1CCN1CCC(c2c[nH]c3c(Cl)cccc23)CC1 [Compound 4k, 3-[1-(2-{2-Methyl-5-[(1-[1,2,3]thiadiazol-5-ylmethanoyl)amino]phenyl}ethyl)piperidin-4-yl]-7-chloro-1H-indole] | 67

Biological target: T2, D4 receptor (Homo sapiens, UniProt P21917)
T2 sequence (P21917 1-419): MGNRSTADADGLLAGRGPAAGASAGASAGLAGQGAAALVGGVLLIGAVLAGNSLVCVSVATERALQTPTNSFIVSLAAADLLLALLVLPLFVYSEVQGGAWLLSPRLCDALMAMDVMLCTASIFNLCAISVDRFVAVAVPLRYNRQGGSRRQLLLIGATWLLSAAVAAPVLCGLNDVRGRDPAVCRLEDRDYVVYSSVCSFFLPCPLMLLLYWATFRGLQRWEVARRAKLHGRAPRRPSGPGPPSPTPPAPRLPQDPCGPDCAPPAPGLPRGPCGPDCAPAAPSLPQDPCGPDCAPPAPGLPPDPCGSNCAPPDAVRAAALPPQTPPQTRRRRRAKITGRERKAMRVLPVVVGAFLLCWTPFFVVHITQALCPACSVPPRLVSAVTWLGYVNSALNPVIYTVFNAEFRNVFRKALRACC
Assay: not given
Settings: literature report, result in words; cited from earlier work

SMILES | functional activity at D4 receptor
CC(C)Oc1cccnc1N(C)C1CCN(Cc2ccccc2)CC1 [Compound U-101958] | partial D4 receptor agonists
